Patent publication US10980814B2, “Fused pentacyclic imidazole derivatives as modulators of TNF activity” (UCB Biopharma SRL, priority 2017, dated 2021)

Target: T1, human hERG channels (Kv11.1) (Homo sapiens, UniProt Q12809)
T1 construct: host or cells: CHO cells (hERG-Duo cells)
Experiment: hERG assay, automated planar patch-clamp in CHO cells stably expressing human hERG channels
Type: cell-based
Conditions: peak tail-current, QPatch HTX whole-cell voltage-clamp, room temperature, 0.12-30 μM
Procedure: Pharmacological activity of the compounds at cardiac hERG channels (Kv11.1) was assessed functionally using an automated planar patch-clamp electrophysiology station. CHO cells stably expressing human hERG channels were grown under the permanent pressure of the appropriate selection antibiotics according to the specifications of the manufacturer (hERG-Duo cells, B'SYS GmbH, Switzerland). Cells were harvested below 80% confluence, suspended in serum-free medium and dispensed automatically to multi-well recording plates for whole-cell voltage-clamp recordings on a QPatch HTX workstation (Sophion, BiolinScientific AB, Denmark). The composition of the extracellular recording buffer was (in mM): NaCl, 150; KCl, 4; CaCl2), 2; MgCl2, 1; HEPES, 10; and glucose, 10; adjusted to pH 7.4 with NaOH. The intracellular buffer contained (in mM): KCl, 120; CaCl2), 5; MgCl2, 2; EGTA, 10; HEPES, 10; and Mg-ATP, 4; adjusted to pH 7.2 with KOH. The voltage protocol used to activate hERG currents consisted in a first depolarizing step from a −80 mV holding potential to +20 mV for 5 s followed by a second repolarizing step to −50 mV. Cycle time was 15 s, recordings were performed at room temperature and drug effects were evaluated on the peak tail-current elicited by the second repolarizing step. For pharmacology, stock solutions of the test articles at 10 mM were prepared in DMSO. A 6-point concentration-range was prepared in polypropylene micro-titer plates by first serially diluting the initial 10 mM stock 1:3 in DMSO and then diluting each of the 6 intermediate working solutions 1:333 in extracellular recording medium containing 0.06% Pluronic F-68 (Gibco/Thermofischer, France). Final concentrations of test articles (i.e. 0.12 μM, 0.37 μM, 1.1 μM, 3.3 μM, 10 μM and 30 μM) were applied cumulatively to the cells in ascending order. A positive control (terfenadine, 10 μM) was added at the end of each recording sequence. Time-course of hERG tail current amplitude was analyzed off-line following optional leak current substraction and compensation of current rundown as needed. Half-maximal inhibitory concentrations (IC50) were obtained by fitting current amplitudes measured at the end of each exposure period and normalized with respect to pre-drug baseline with a four parameter sigmoidal equation.

T1 sequence (Q12809 whole entry): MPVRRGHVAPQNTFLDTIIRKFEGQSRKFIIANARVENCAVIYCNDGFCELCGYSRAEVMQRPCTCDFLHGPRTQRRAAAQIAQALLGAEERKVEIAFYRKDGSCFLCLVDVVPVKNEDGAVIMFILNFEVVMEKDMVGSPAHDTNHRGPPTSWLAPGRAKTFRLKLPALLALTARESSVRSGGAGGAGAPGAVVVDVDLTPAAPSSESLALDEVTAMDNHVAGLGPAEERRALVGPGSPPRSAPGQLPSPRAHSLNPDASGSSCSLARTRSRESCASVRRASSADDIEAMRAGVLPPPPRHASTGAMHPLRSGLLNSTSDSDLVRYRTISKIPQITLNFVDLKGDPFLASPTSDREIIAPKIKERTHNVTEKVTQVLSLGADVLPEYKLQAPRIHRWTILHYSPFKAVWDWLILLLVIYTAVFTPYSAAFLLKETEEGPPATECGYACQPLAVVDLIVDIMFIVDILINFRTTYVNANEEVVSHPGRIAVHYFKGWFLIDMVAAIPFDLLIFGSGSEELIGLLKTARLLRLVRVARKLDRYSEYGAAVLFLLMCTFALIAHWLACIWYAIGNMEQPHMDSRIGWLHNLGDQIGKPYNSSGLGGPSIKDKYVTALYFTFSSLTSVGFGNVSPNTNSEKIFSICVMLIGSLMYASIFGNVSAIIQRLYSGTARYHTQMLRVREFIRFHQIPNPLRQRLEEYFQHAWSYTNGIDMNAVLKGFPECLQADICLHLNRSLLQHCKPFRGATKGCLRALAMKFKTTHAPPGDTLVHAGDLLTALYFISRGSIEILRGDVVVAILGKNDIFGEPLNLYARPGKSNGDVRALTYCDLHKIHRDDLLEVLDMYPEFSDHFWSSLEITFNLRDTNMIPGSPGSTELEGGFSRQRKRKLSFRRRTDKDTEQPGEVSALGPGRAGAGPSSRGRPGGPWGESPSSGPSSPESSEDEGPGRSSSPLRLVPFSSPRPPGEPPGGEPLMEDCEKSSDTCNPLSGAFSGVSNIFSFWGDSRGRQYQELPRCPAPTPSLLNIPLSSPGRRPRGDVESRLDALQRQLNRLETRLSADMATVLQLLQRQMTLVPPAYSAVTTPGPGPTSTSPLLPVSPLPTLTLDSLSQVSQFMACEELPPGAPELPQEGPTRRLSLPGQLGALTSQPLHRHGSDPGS

Compound	IC50
C[C@@H]1CC[C@@]1(N)c1ncc(-c2ccc3nc4n(c3c2)[C@@H]2C[C@H]4NC(=O)c3cccc(OC(F)F)c32)cc1F (single isomer, unassigned) [Example 5, (7R,14R)-11-{6-[(1 S,2R)-1-Amino-2-methylcyclobutyl]-5-fluoropyridin-3-yl}-1-(difluoromethoxy)-6,7-dihydro-7,14-methanobenzimidazo[1,2-b][2,5]benzodiazocin-5(14M-one or (7R,14R)-11-{6-[(1R,2S)-1-Amino-2-methylcyclobutyl]-5-fluoropyridin-3-yl}-1-(difluoromethoxy)-6,7-dihydro-7,14-methanobenzimidazo[1,2-b][2,5]-benzodiazocin-5(14H)-one]	> 30 µM
CN1C(=O)c2cccc(OC(F)F)c2[C@H]2C[C@@H]1c1nc3ccc(-c4cnc([C@]5(N)C[C@](O)(C(F)(F)F)C5)c(F)c4)cc3n12 (single isomer, unassigned) [Example 11]	> 30 µM
CN1C(=O)c2cccc(OC(F)F)c2[C@H]2C[C@@H]1c1nc3ccc(-c4cnc([C@]5(N)C[C@](O)(C(F)(F)F)C5)nc4)cc3n12 (single isomer, unassigned) [Example 12]	> 30 µM
C[C@]1(C#N)C[C@](N)(c2ncc(-c3ccc4nc5n(c4c3)[C@@H]3C[C@H]5NC(=O)c4cccc(OC(F)F)c43)cn2)C1 [Example 2, cis-3-Amino-3-{5-[(7R,14R)-1-(difluoromethoxy)-5-oxo-5,6,7,14-tetrahydro-7,14-methanobenzimidazo[1,2-b][2,5]benzodiazocin-11-yl]pyrimidin-2-yl}-1-methyl-cyclobutanecarbonitrile]	> 30 µM
C[C@]1(C#N)C[C@](N)(c2ncc(-c3ccc4nc5n(c4c3)[C@@H]3C[C@H]5NC(=O)c4cccc(OC(F)F)c43)cc2F)C1 [Example 4, cis-3-Amino-3-{5-[(7R,14R)-1-(difluoromethoxy)-5-oxo-5,6,7,14-tetrahydro-7,14-methanobenzimidazo[1,2-b][2,5]benzodiazocin-11-yl]-3-fluoropyridin-2-yl}-1-methyl-cyclobutanecarbonitrile]	> 30 µM
CN1C(=O)c2cccc(OC(F)F)c2[C@H]2C[C@@H]1c1nc3ccc(-c4cnc(C5(N)CCC5)nc4)cc3n12 [Example 6, (7R,14R)-11-[2-(1-Aminocyclobutyl)pyrimidin-5-yl]-1-(difluoromethoxy)-6-methyl-6,7-dihydro-7,14-methanobenzimidazo[1,2-b][2,5]benzodiazocin-5(14H)-one]	~8 µM
C[C@]1(O)C[C@](N)(c2ncc(-c3ccc4nc5n(c4c3)[C@@H]3C[C@H]5NC(=O)c4cccc(OC(F)F)c43)cc2F)C1 [Example 8, (7R,14R)-11-[6-(cis-1-Amino-3-hydroxy-3-methylcyclobutyl)-5-fluoropyridin-3-yl]-1-(difluoromethoxy)-6,7-dihydro-7,14-methanobenzimidazo[1,2-b][2,5]benzodiazocin-5(14H)-one]	> 30 µM
C[C@]1(CO)C[C@](N)(c2ncc(-c3ccc4nc5n(c4c3)[C@@H]3C[C@H]5NC(=O)c4cccc(OC(F)F)c43)cc2F)C1 [Example 10, (7R,14R)-11-{6-[cis-1-Amino-3-(hydroxymethyl)-3-methylcyclobutyl]-5-fluoropyridin-3-yl}-1-(difluoromethoxy)-6,7-dihydro-7,14-methanobenzimidazo[1,2-b][2,5]-benzodiazocin-5(14H)-one]	> 30 µM
N[C@]1(c2ncc(-c3ccc4nc5n(c4c3)[C@@H]3C[C@H]5NC(=O)c4cccc(OC(F)F)c43)cc2F)C[C@@](O)(C(F)(F)F)C1 [Example 13, (7R,14R)-11-{6-[cis-1-Amino-3-hydroxy-3-(trifluoromethyl)cyclobutyl]-5-fluoropyridin-3-yl}-1-(difluoromethoxy)-6,7-dihydro-7,14-methanobenzimidazo[1,2-b][2,5]-benzodiazocin-5(14H)-one]	> 30 µM
[2H]C([2H])(O)[C@]1(C)C[C@@](N)(c2ncc(-c3ccc4nc5n(c4c3)[C@@H]3C[C@H]5NC(=O)c4cccc(OC(F)F)c43)cn2)C1 [Example 14, (7R,14R)-11-(2-{cis-1-Amino-3-[hydroxy(dideutero)methyl]-3-methylcyclobutyl}-pyrimidin-5-yl)-1-(difluoromethoxy)-6,7-dihydro-7,14-methanobenzimidazo[1,2-b][2,5]-benzodiazocin-5(14H)-one]	> 30 µM
C[C@]1(CO)C[C@](N)(c2ncc(-c3ccc4nc5n(c4c3)[C@@H]3C[C@H]5NC(=O)c4cccc(OC(F)F)c43)cn2)C1 [Example 15, (7R,14R)-11-{2-[cis-1-Amino-3-(hydroxymethyl)-3-methylcyclobutyl]pyrimidin-5-yl}-1-(difluoromethoxy)-6,7-dihydro-7,14-methanobenzimidazo[1,2-b][2,5]benzodiazocin-5(14H)-one]	> 30 µM
[2H]C([2H])(O)[C@]1(C)C[C@@](N)(c2ncc(-c3ccc4nc5n(c4c3)[C@@H]3C[C@H]5NC(=O)c4cccc(OC(F)F)c43)cc2F)C1 [Example 16, (7R,14R)-11-(6-{cis-1-Amino-3-[hydroxy(dideutero)methyl]-3-methylcyclobutyl}-5-fluoropyridin-3-yl)-1-(difluoromethoxy)-6,7-dihydro-7,14-methanobenzimidazo[1,2-b]-[2,5]benzodiazocin-5(14H)-one]	> 30 µM
